Reference: ChEMBL document CHEMBL1201862, “PubChem BioAssay data set” (2004)
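Protocol summary: plate cells (96-well), add compound at 5 concentrations, incubate 48 h, interpolate endpoints linearly. GI50 = concentration required for 50% inhibition of growth.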 Activity calls are given as the source filed them. Cut-off read from the data, not from the text of the source: active = GI50 up to about 1.1 µM and inactive = higher.

Key:
Assay in all cases: NCI anticancer screen, dose series, 48 h
786-0 = test system: 786-0
A498 = test system: A498
A549 = test system: A549
ACHN = test system: ACHN
CAKI-1 = test system: CAKI-1
COLO 205 = test system: COLO 205
DU-145 = test system: DU-145
HCC 2998 = test system: HCC 2998
HCT-116 = test system: HCT-116
HL-60 = test system: HL-60
HOP-62 = test system: HOP-62
K562 = test system: K562
KM12 = test system: KM12
M14 = test system: M14
MCF7 = test system: MCF7
MDA-MB-231 = test system: MDA-MB-231
MDA-MB-435 = test system: MDA-MB-435
MDA-N = test system: MDA-N
MOLT-4 = test system: MOLT-4
NCI-H226 = test system: NCI-H226
NCI-H460 = test system: NCI-H460
OVCAR-3 = test system: OVCAR-3
OVCAR-4 = test system: OVCAR-4
PC-3 = test system: PC-3
RPMI-8226 = test system: RPMI-8226
RXF 393 = test system: RXF 393
SF-295 = test system: SF-295
SK-MEL-28 = test system: SK-MEL-28
SK-MEL-2 = test system: SK-MEL-2
SK-MEL-5 = test system: SK-MEL-5
SK-OV-3 = test system: SK-OV-3
SN12C = test system: SN12C
SNB-19 = test system: SNB-19
SNB-75 = test system: SNB-75
SW-620 = test system: SW-620
T47D = test system: T47D
TK-10 = test system: TK-10
U-251 = test system: U-251
UACC-257 = test system: UACC-257
UACC-62 = test system: UACC-62
UO-31 = test system: UO-31
CCRF-CEM = test system: CCRF-CEM
HOP-92 = test system: HOP-92
IGROV-1 = test system: IGROV-1
OVCAR-5 = test system: OVCAR-5
SR = test system: SR

In the case of `COC(=O)C1=C2SCc3ccc(cc3)CSC3=C(C(=O)OC)SC(=C(S2)S1)S3`, the GI50 (786-0) was 96.6 µM (inactive), the GI50 (A498) was > 100 µM (inactive) and the GI50 (A549) was > 100 µM (inactive). For the same molecule, the GI50 (ACHN) was > 100 µM (inactive), the GI50 (CAKI-1) was > 100 µM (inactive) and the GI50 (COLO 205) was > 100 µM (inactive). The GI50 (DU-145) was > 100 µM (inactive), the GI50 (HCC 2998) was > 100 µM (inactive) and the GI50 (HCT-116) was > 100 µM (inactive). For the same molecule, the GI50 (HL-60) was 0.253 µM (active), the GI50 (HOP-62) was > 100 µM (inactive) and the GI50 (K562) was 43.6 µM (inactive). The GI50 (KM12) was > 100 µM (inactive), the GI50 (M14) was > 100 µM (inactive) and the GI50 (MCF7) was > 100 µM (inactive). The GI50 (MDA-MB-231) was > 100 µM (inactive), the GI50 (MDA-MB-435) was 49.4 µM (inactive) and the GI50 (MDA-N) was 74.6 µM (inactive). The GI50 (MOLT-4) was > 100 µM (inactive), the GI50 (NCI-H226) was > 100 µM (inactive) and the GI50 (NCI-H460) was > 100 µM (inactive). The GI50 (OVCAR-3) was > 100 µM (inactive), the GI50 (OVCAR-4) was 64.6 µM (inactive) and the GI50 (PC-3) was > 100 µM (inactive). The GI50 (RPMI-8226) was 33 µM (inactive), the GI50 (RXF 393) was 67.3 µM (inactive) and the GI50 (SF-295) was 91.8 µM (inactive). For the same molecule, the GI50 (SK-MEL-28) was > 100 µM (inactive), the GI50 (SK-MEL-2) was > 100 µM (inactive) and the GI50 (SK-MEL-5) was > 100 µM (inactive). For the same molecule, the GI50 (SK-OV-3) was > 100 µM (inactive), the GI50 (SN12C) was > 100 µM (inactive) and the GI50 (SNB-19) was > 100 µM (inactive). For the same molecule, the GI50 (SNB-75) was > 100 µM (inactive), the GI50 (SW-620) was > 100 µM (inactive) and the GI50 (T47D) was > 100 µM (inactive). For the same molecule, the GI50 (TK-10) was > 100 µM (inactive), the GI50 (U-251) was > 100 µM (inactive) and the GI50 (UACC-257) was > 100 µM (inactive). For the same molecule, the GI50 (UACC-62) was > 100 µM (inactive) and the GI50 (UO-31) was > 100 µM (inactive).

With `CC[C@@]1(O)C[C@H](OC2CC(N(C)C)C(OC3CC(O)C(OC4CCC(=O)C(C)O4)C(C)O3)C(C)O2)c2c(cc3c(c2O)C(=O)c2c(O)ccc(O)c2C3=O)[C@H]1C(=O)OC` (stereo partly drawn) the GI50 (A498) was < 0.01 µM (active), the GI50 (CCRF-CEM) was < 0.0001 µM (active) and the GI50 (COLO 205) was < 0.0001 µM (active). For the same molecule, the GI50 (HL-60) was < 0.0001 µM (active), the GI50 (HOP-92) was < 0.01 µM (active) and the GI50 (IGROV-1) was < 0.0001 µM (active). The GI50 (M14) was < 0.01 µM (active), the GI50 (MCF7) was < 0.0001 µM (active) and the GI50 (OVCAR-3) was < 0.01 µM (active). For the same molecule, the GI50 (OVCAR-5) was 0.01 µM (active), the GI50 (SK-MEL-2) was < 0.01 µM (active) and the GI50 (SNB-19) was < 0.0001 µM (active). For the same molecule, the GI50 (SNB-75) was 0.0181 µM (active), the GI50 (SR) was < 0.01 µM (active) and the GI50 (U-251) was < 0.01 µM (active). For the same molecule, the GI50 (UACC-257) was 0.0153 µM (active) and the GI50 (UACC-62) was < 0.01 µM (active).
